As usually defined, the IC50 is the concentration that gives 50% inhibition. Read a high IC50 as weaker potency in that assay. The bioavailability is dose-corrected exposure relative to a reference, in per cent. Low readings indicate poor availability, high ones good availability. The half-life is the time needed for the level to fall by half in the phase considered. A high value points to slow loss.

Data set [1] can be described thus: Stability in human serum at 1 mM after 30 to 60 mins by UPLC method. The class given is ADME, cell-free. The conditions noted are these: 1000 µM.
For data set [2], the system named is Plasmodium falciparum. The experiment in a line: Antiplasmodial activity against chloroquine-resistant Plasmodium falciparum K1 infected in human erythrocytes measured after 72 hrs Malstat/NBT reagent based assay. The class given is functional, organism-based. The conditions noted are these: K1, 72 h.
The subject of data set [3] is Mycobacterium tuberculosis. Kind of data set: Antimicrobial activity against Mycobacterium tuberculosis H37Ra ATCC 25177 after 7 days by luminometric method. The class given is functional, organism-based. The conditions noted are these: H37Ra ATCC 25177, 168 h.
A short description of data set [4]: Selectivity index, ratio of IC50 for human MRC5 cells to IC50 for chloroquine-resistant Plasmodium falciparum K1 infected in human erythrocytes. The class given is toxicity, cell-based. The conditions noted are these: read-out: Ratio IC50.
For data set [5], the system named is MRC5. The experiment in a line: Cytotoxicity against human MRC5 cells after 24 hrs by resazurin assay. It is filed as cell-based. The conditions noted are these: MRC5, 24 h. In general terms: The colour change of resazurin is a common sign of viable cells or microbes.
Data set [6] in a line: Selectivity index, ratio of IC50 for human MRC5 cells to IC50 for Mycobacterium tuberculosis H37Ra ATCC 25177. The conditions noted are these: read-out: Ratio IC50. It is filed as toxicity.
Data set [7] is described as follows: Oral bioavailability in patient with malaria. The conditions noted are these: human, in vivo. The class given is ADME, organism-based.
A short description of data set [8]: Half life in patient with malaria. It is filed as ADME, organism-based. The conditions noted are these: human, in vivo.

SMILES strings stand for the structures. A value given as a limit tells only on which side of the number the result lay.

For the molecule `CN(O)C(=O)CCCP(=O)(OCOC(=O)C(C)(C)C)OCOC(=O)C(C)(C)C`, in data set [1], the Stability result is reported as “Stable”. Besides, the IC50 was 0.73 µM in data set [2], 44.3 µM in data set [3] and greater than 64 µM in data set [5]. The results for the selectivity ratio in data set [4] and in data set [6] were greater than 88 and greater than 1.4, respectively.

`CN(O)C(=O)CCCP(=O)(O)O`: the IC50 in data set [3] is greater than 64 µM.

For the molecule `CCCCCCCCCCCCOCCCOP(=O)(O)CCCC(=O)N(C)O`, the IC50 in data set [2] is 0.82 µM; in data set [3] it was greater than 64 µM; in data set [5], 55.9 µM. Besides, the selectivity ratio in data set [4] was determined as 68.

As for `CCCCCCCCCCCCCCCCOCCCOP(=O)(CCCC(=O)N(C)O)OCCCOCCCCCCCCCCCCCCCC`, the IC50 was 42 µM in data set [2], greater than 64 µM in data set [3] and greater than 64 µM in data set [5]. Moreover, the selectivity ratio in data set [4] is greater than 1.5.

Take `CCCCOCCCOP(=O)(O)CCCC(=O)N(C)O`: the IC50 in data set [2] is 16 µM; in data set [3], greater than 64 µM; in data set [5], greater than 64 µM. Besides, the selectivity ratio in data set [4] is greater than 4.

Take `CC(C)OC(=O)OCOP(=O)(CCCC(=O)N(C)O)OCOC(=O)OC(C)C`: the Stability result in data set [1] is on record as “Stable”. Moreover, the IC50 in data set [2] was 0.08 µM; in data set [3], greater than 64 µM; in data set [5] it was 55.7 µM. Also, the selectivity ratio in data set [4] amounted to 743.

In the case of `CN(O)C(=O)CCCP(=O)(OCc1ccc(OC(=O)c2ccccc2)cc1)OCc1ccc(OC(=O)c2ccccc2)cc1`, the Stability entry in data set [1] is listed as “Stable”. Further, the values for the IC50 in data set [2], in data set [3] and in data set [5] were 0.03 µM, 0.42 µM and 0.61 µM, respectively. Moreover, the selectivity ratio in data set [4] was 20; in data set [6], 1.5.

Regarding `CCCCCCCCCCCCCCCCOCCCOP(=O)(O)CCCC(=O)N(C)O`, the IC50 in data set [2] is 0.95 µM; in data set [3] it was greater than 64 µM; in data set [5], 24.5 µM. Besides, in data set [4], the selectivity ratio was 26.

Take `CC(C)C(=O)Oc1ccc(COP(=O)(CCCC(=O)N(C)O)OCc2ccc(OC(=O)C(C)C)cc2)cc1`: the Stability entry in data set [1] is reported as “Stable”. The IC50 is 0.14 µM in data set [2], 0.64 µM in data set [3] and 0.99 µM in data set [5]. Further, the selectivity ratio in data set [4] was determined as 7.3; in data set [6], 1.6.

Regarding `CCCCCCCCOCCCOP(=O)(O)CCCC(=O)N(C)O`, the figures for the IC50 in data set [2], in data set [3] and in data set [5] were 1.9 µM, greater than 64 µM and greater than 64 µM, respectively. In addition, the selectivity ratio in data set [4] is greater than 34.

Consider `CC(=O)Oc1ccc(COP(=O)(CCCC(=O)N(C)O)OCc2ccc(OC(C)=O)cc2)cc1`, for which the Stability result in data set [1] is “Stable”. The IC50 stood at 0.49 µM in data set [2], 19.7 µM in data set [3] and 15.5 µM in data set [5]. The figures for the selectivity ratio in data set [4] and in data set [6] were 32 and 0.8, respectively.

Regarding `CN(O)C(=O)CCCP(=O)(OCc1ccc(OC(=O)C(C)(C)C)cc1)OCc1ccc(OC(=O)C(C)(C)C)cc1`, in data set [1], the Stability entry is “Stable”. Also, the IC50 in data set [2] came out at 0.16 µM; in data set [3] it was 0.43 µM; in data set [5], 0.98 µM. In addition, the values for the selectivity ratio in data set [4] and in data set [6] were 6.1 and 2.3, respectively.

`CCCCCCCCC(=O)Oc1ccc(COP(=O)(CCCC(=O)N(C)O)OCc2ccc(OC(=O)CCCCCCCC)cc2)cc1`: the Stability result in data set [1] is on record as “Stable”. Also, the IC50 in data set [2] turned out to be 0.3 µM; in data set [3], 1.76 µM; in data set [5], 12.6 µM. Also, the results for the selectivity ratio in data set [4] and in data set [6] were 42 and 7.6, respectively.

With `O=CN(O)CCCP(=O)([O-])O.[Na+]` [FOSMIDOMYCIN SODIUM], the bioavailability in data set [7] came out at 30%. Besides, the IC50 in data set [3] and in data set [5] was greater than 64 µM throughout. In data set [8], this molecule gave a half-life of 2 h.

`CC(=O)N(O)CCCP(=O)(O)O` [FR-900098]: the IC50 in data set [3] is greater than 64 µM.
